In patent publication US10124004B2, “Pyrido[3,4-d]pyrimidine derivative and pharmaceutically acceptable salt thereof” (Teijin Pharma Limited, priority 2015, dated 2018):

Target: T1, CDK4/cyclin D3 (Homo sapiens, UniProt P11802)
T1 construct: purchased Carna Biosciences, Inc. QS S Assist CDK4/Cyclin D3_FP Kit
Assay: Human CDK4/cyclin D3 inhibitory activity (QS S Assist CDK4/Cyclin D3_FP Kit, IMAP fluorescence polarization)
Format: biochemical
Settings: Human CDK4/cyclin D3 inhibitory activity; read-out: CDK4 Activity symbol
Method: Human CDK4/Cyclin D3 Inhibitory Activity
Each compound was analyzed for CDK4/cyclin D3 inhibitory activity with an assay kit (QS S Assist CDK4/Cyclin D3_FP Kit, available from Carna Biosciences, Inc.). This assay kit determines kinase activity on the basis of the IMAP technology by Molecular Devices. Specifically, the kinase activity is determined through quantification of a variation in fluorescent polarization caused by binding of a kinase-phosphorylated fluorescent substance to an IMAP-binding reagent.
Each solution was prepared with the 10× assay buffer attached to the kit or a separately prepared assay buffer having the same composition as the assay buffer attached to the kit. An assay buffer was prepared by 10-fold dilution of the 10× assay buffer with distilled water. The assay buffer contains 20 mM HEPES (pH 7.4), 0.01% Tween20, and 2 mM dithiothreitol. A test compound solution was prepared by dilution of the test compound with dimethyl sulfoxide (DMSO) to a concentration 100 times higher than the final concentration and then 25-fold dilution with the assay buffer to a concentration four times higher than the final concentration. An ATP/substrate/Metal solution was prepared by five-fold dilution of the 5×ATP/substrate/Metal solution attached to the kit with the assay buffer. An enzyme solution was prepared by dilution of the CDK4/cyclin D3 attached to the kit with the assay buffer to a concentration twice higher than the final concentration (final concentration of CDK4/cyclin D3:12.5 to 25 ng/well). A detection reagent was prepared by five-fold dilution of each of 5× IMAP-binding buffer A and 5×IMAP-binding buffer B with distilled water, mixing of IMAP-binding buffer A with IMAP-binding buffer B at a ratio of 85:15, and 400-fold dilution of the IMAP-binding reagent with the mixed buffer.
The test compound solution (5 μL/well) and the ATP/substrate/Metal solution (5 μL/well) were added to a 384-well plate, and the enzyme solution or the assay buffer (10 μL/well) was added to the plate (total amount of the reaction mixture: 20 μL/well) for initiation of enzymatic reaction. […] The reaction was performed at room temperature for 45 minutes, and the detection reagent (60 μL/well) was then added to the plate, followed by further reaction for 30 minutes at room temperature under light shielding conditions. Subsequently, fluorescent polarization was determined with a microplate reader at an excitation wavelength of 485 nm and an emission wavelength of 535 nm.
The percent inhibition of enzyme activity was calculated for each test compound (note: enzyme activity=100% in the case of addition of the enzyme solution and addition of DMSO instead of the test compound solution, whereas enzyme activity=0% in the case of addition of the assay buffer instead of the enzyme solution, and addition of DMSO instead of the test compound solution). The percent inhibition of enzyme activity was fitted to a dose-response curve, to determine a 50% inhibitory concentration against CDK4/cyclin D3.
In each table, “+++” corresponds to IC50<10 nM, “++” 10 nM≤IC50<100 nM, and “+” 100 nM≤IC50.

T1 sequence (P11802 whole entry): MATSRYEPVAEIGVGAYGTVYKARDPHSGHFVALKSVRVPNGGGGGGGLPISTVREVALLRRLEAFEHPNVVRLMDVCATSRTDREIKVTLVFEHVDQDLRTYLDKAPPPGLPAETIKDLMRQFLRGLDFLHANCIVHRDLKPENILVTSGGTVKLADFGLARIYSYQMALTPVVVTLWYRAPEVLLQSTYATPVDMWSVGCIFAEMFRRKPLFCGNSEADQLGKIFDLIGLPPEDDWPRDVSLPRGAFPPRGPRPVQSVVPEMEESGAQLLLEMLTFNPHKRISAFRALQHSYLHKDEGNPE
T1 sequence (P30281 whole entry partner): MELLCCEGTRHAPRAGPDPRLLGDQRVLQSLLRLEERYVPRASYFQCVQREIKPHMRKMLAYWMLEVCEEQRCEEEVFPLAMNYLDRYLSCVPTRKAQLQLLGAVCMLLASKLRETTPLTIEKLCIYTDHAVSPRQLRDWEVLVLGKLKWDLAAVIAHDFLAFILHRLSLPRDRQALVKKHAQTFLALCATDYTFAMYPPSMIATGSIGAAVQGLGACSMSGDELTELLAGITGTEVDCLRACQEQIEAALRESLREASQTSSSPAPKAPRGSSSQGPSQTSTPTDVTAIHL

Compound	IC50 [µM]
CO[C@H](C)c1cc2cnc(Nc3ccc(N4CCNC(=O)C(C)(C)C4)cn3)nc2c(NC(C)C)n1 [Compound 514]	0.01 to 0.1
COC(C)c1cc2cnc(Nc3ccc(CN4CCNC5(CC5)C4)cn3)nc2c(NC(C)C)n1 (stereo not drawn) [Compound 515]	0.01 to 0.1
CC(C)Nc1nc(C(C)O)cc2cnc(Nc3ccc(CN4CCNC5(CC5)C4)cn3)nc12 (stereo not drawn) [Compound 516]	0.01 to 0.1
CNCCCOc1ccc(Nc2ncc3cc([C@@H](C)OC)nc(NC(C)C)c3n2)nn1 [Compound 527]	0.01 to 0.1
CNC(=O)CNc1ccc(Nc2ncc3cc([C@@H](C)O)nc(NC(C)C)c3n2)nc1 [Compound 539]	0.01 to 0.1
CO[C@H](C)c1cc2cnc(Nc3ccc(N4CCNCC(C)(C)C4=O)cn3)nc2c(NC(C)C)n1 [Compound 542]	0.01 to 0.1
CC(C)Nc1nc([C@@H](C)O)cc2cnc(Nc3ccc(OC4CCNC4)nn3)nc12 (stereo partly drawn) [Compound 544]	< 0.01
CC(C)Nc1nc([C@@H](C)O)cc2cnc(Nc3ccc(O[C@H]4CNC[C@@H]4F)nn3)nc12 [Compound 545]	< 0.01
CC(C)Nc1nc([C@@H](C)O)cc2cnc(Nc3ccc(OC4CNC4)nn3)nc12 [Compound 546]	< 0.01
CC(C)Nc1nc([C@@H](C)O)cc2cnc(Nc3ccc(O[C@H]4CNCC[C@@H]4F)nn3)nc12 [Compound 547]	< 0.01
CNCCOc1ccc(Nc2ncc3cc([C@@H](C)OC)nc(NC(C)C)c3n2)nn1 [Compound 551]	0.01 to 0.1
CNCCOc1ccc(Nc2ncc3cc([C@@H](C)O)nc(NC(C)C)c3n2)nn1 [Compound 552]	< 0.01
CC(C)Nc1nc([C@@H](C)O)cc2cnc(Nc3ccc(O[C@H]4CCNC[C@@H]4F)nn3)nc12 [Compound 563]	< 0.01
CC(C)Nc1nc([C@@H](C)O)cc2cnc(Nc3ccc(O[C@@H]4CCNC[C@@H]4F)nn3)nc12 [Compound 564]	< 0.01

Continued, values first:

IC50 [µM]	Compound
< 0.01	CC(C)Nc1nc([C@@H](C)O)cc2cnc(Nc3ccc(N4CCCC(O)C4)nn3)nc12 (stereo partly drawn) [Compound 517]
< 0.01	CO[C@H](C)c1cc2cnc(Nc3ccc(CC(=O)N4CCNCC4)cn3)nc2c(NC(C)C)n1 [Compound 518]
< 0.01	CC(C)Nc1nc([C@@H](C)O)cc2cnc(Nc3ccc(N4CCC(N5CCOCC5)CC4)nn3)nc12 [Compound 520]
< 0.01	CO[C@H](C)c1cc2cnc(Nc3ccc(N4CC5(CC(O)C5)C4)nn3)nc2c(NC(C)C)n1 [Compound 523]
< 0.01	CO[C@H](C)c1cc2cnc(Nc3ccc(N4C[C@@H]5C[C@H]4CN5)cn3)nc2c(NC(C)C)n1 [Compound 525]
< 0.01	CNCCCOc1ccc(Nc2ncc3cc([C@@H](C)O)nc(NC(C)C)c3n2)nc1 [Compound 528]
< 0.01	CNCCCOc1ccc(Nc2ncc3cc([C@@H](C)O)nc(NC(C)C)c3n2)nn1 [Compound 530]
< 0.01	CO[C@H](C)c1cc2cnc(Nc3ccc(N4CCN(C)CC4)nn3)nc2c(NC(C)C)n1 [Compound 531]
< 0.01	CO[C@H](C)c1cc2cnc(Nc3ccc(N4CC(=O)NCC4=O)cn3)nc2c(NC(C)C)n1 [Compound 533]
< 0.01	CO[C@H](C)c1cc2cnc(Nc3ccc(CN4CCNC(C)(C)C4)cn3)nc2c(NC(C)C)n1 [Compound 534]
< 0.01	CO[C@H](C)c1cc2cnc(Nc3ccc(CN4CCNC5(CC5)C4)cn3)nc2c(NC(C)C)n1 [Compound 535]
< 0.01	CC(C)Nc1nc([C@@H](C)O)cc2cnc(Nc3ccc(CN4CCNC(C)(C)C4)cn3)nc12 [Compound 536]
< 0.01	CC(C)Nc1nc([C@@H](C)O)cc2cnc(Nc3ccc(N(C)C(=O)CN)cn3)nc12 [Compound 538]
< 0.01	CC(C)Nc1nc([C@@H](C)O)cc2cnc(Nc3ccc(N4CCNC(=O)C4)nn3)nc12 [Compound 540]
< 0.01	CC(C)Nc1nc([C@@H](C)O)cc2cnc(Nc3ccc(OC4CCCNC4)nn3)nc12 (stereo partly drawn) [Compound 541]
< 0.01	CC(C)Nc1nc([C@@H](C)O)cc2cnc(Nc3ccc(N4CCNCC(C)(C)C4=O)cn3)nc12 [Compound 543]
